In the assay the target is GST tagged truncated human mutant G2019S LRRK2 (Homo sapiens (Human), UniProt Q5S007, G2019S). As to the kind of experiment: LRRK2 Km ATP LanthaScreen Assay. The assay is classed as biochemical. To be noted: G2019S LRRK2, 134 μM ATP (Km ATP), mean values. The procedure, abridged:
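Enzyme (GST-tagged, truncated) was preincubated with compound for 15 min at RT in 50 mM Tris pH 8.5, 10 mM MgCl2, 0.01% Brij-35, 1 mM EGTA, 2 mM DTT and 0.05 mM orthovanadate. Fluorescein-LRRKtide and 134 μM ATP (Km) were then added for 90 min. EDTA and Tb-anti-pERM antibody stopped the reaction; the TR-FRET 520/495 ratio gave 4-parameter IC50s, reported as mean pIC50.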
(Time-resolved FRET reads energy transfer from a long-lived donor to a nearby acceptor.)
GST tagged truncated human mutant G2019S LRRK2, sequence (Q5S007 970-2527 G2019S): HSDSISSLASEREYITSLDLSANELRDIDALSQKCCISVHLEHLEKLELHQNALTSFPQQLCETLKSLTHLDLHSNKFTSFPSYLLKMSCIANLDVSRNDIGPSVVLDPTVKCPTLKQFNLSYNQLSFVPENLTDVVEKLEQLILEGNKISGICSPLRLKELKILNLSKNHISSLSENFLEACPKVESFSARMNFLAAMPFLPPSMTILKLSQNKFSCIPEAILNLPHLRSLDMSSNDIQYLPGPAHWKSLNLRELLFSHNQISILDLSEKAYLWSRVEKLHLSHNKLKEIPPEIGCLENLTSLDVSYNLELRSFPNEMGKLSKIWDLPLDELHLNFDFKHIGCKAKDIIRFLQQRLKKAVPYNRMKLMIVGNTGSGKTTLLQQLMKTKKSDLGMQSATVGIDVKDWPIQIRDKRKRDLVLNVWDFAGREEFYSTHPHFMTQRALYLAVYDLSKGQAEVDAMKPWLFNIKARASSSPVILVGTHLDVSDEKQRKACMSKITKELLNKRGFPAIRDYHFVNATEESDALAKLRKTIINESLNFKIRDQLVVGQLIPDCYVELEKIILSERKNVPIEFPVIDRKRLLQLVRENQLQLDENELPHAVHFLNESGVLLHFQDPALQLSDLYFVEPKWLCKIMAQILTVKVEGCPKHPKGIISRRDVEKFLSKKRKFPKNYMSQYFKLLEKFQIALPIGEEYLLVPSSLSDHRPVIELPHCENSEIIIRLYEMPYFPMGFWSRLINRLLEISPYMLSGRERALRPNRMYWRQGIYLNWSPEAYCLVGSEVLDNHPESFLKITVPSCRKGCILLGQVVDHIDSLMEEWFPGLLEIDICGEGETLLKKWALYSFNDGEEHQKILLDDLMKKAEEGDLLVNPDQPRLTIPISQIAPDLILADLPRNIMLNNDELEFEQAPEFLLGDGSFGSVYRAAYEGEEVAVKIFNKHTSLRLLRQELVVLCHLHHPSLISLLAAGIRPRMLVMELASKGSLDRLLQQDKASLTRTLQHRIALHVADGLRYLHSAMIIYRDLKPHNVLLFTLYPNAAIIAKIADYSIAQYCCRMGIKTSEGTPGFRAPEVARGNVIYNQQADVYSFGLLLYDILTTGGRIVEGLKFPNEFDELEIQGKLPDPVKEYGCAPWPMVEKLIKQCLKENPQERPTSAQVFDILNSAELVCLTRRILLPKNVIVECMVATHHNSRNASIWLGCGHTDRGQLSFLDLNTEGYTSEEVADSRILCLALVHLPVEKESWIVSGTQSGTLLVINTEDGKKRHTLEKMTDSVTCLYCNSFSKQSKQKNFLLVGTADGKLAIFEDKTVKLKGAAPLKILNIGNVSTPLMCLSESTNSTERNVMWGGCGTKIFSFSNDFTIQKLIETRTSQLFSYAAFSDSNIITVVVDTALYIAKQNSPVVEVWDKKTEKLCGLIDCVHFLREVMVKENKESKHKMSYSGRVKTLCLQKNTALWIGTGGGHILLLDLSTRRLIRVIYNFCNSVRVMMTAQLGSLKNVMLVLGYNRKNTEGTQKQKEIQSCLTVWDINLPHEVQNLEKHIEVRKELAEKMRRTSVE
Regarding `CC1(O)CCC(c2cc3nc(Nc4cnn(C5CC5)c4Cl)ncc3cc2Cl)CC1` (stereo not drawn) [Ex-1.17, cis-or trans-4-(6-chloro-2-((5-chloro-1-cyclopropyl-1H-pyrazol-4-yl)amino)quinazolin-7-yl)-1-methylcyclohexan-1-ol], the “LRRK2 pIC50” value is on record as 8.58. As for `CC1(N2CC[C@@H](c3cc4nc(Nc5cnn(C6CC6)c5Cl)ncc4cc3Cl)[C@H](F)C2)COC1` (single isomer, unassigned) [Ex-4.99, (3S,4S) or (3R,4R) 6-chloro-N-(5-chloro-1-cyclopropyl-1H-pyrazol-4-yl)-7-[3-fluoro-1-(3-methyloxetan-3-yl)piperidin-4-yl]quinazolin-2-amine], the figure is 8.01; as for `CC1(n2ncc(Nc3ncc4cc(Cl)c([C@@H]5CCN(C6COC6)C[C@H]5F)cc4n3)c2Cl)CC1` (single isomer, unassigned) [Ex-4.27, (3S,4S) or (3R,4R) 6-chloro-N-[5-chloro-1-(1-methylcyclopropyl)-1H-pyrazol-4-yl]-7-[3-fluoro-1-(oxetan-3-yl)piperidin-4-yl]quinazolin-2-amine], above 9.20.

As to `CC1(N2CCC(c3cc4nc(Nc5cnn(C67CC(CN8CC(F)(F)C8)(C6)C7)c5)ncc4cc3Cl)CC2)COC1` [Ex-2.60, 6-chloro-N-(1-{3-[(3,3-difluoroazetidin-1-yl)methyl]bicyclo[1.1.1]pentan-1-yl}-1H-pyrazol-4-yl)-7-[1-(3-methyloxetan-3-yl)piperidin-4-yl]quinazolin-2-amine], the “LRRK2 pIC50” value is above 9.20. To `Cn1ncc(Nc2ncc3cc(Cl)c([C@H]4CCN([C@@H]5COC[C@@H]5O)C[C@@H]4F)cc3n2)c1C1CC1` (single isomer, unassigned) [Ex-4.241, (3S,4S)(3S,4S) or (3S,4S)(3R,4R) or (3R,4R)(3S,4S) or (3R,4R)(3R,4R) 4-(4-{6-chloro-2-[(5-cyclopropyl-1-methyl-1H-pyrazol-4-yl)amino]quinazolin-7-yl}-3-fluoropiperidin-1-yl)oxolan-3-ol] belongs above 9.20. Take “(3S,4S) or (3R,4R) 6-chloro-N-(5-chloro-1-cyclopropyl-1H-pyrazol-4-yl)-7-(3-fluoropiperidin-4-yl)quinazolin-2-amine [Ex-4.1]”: the “LRRK2 pIC50” value is on record as 9.08. As for `Clc1cc2cnc(Nc3cnn(C4CC4)c3Cl)nc2cc1C1CC2COCC(C1)N2C1COC1` (stereo not drawn) [Ex-4.113, cis or trans 6-chloro-N-(5-chloro-1-cyclopropyl-1H-pyrazol-4-yl)-7-(9-(oxetan-3-yl)-3-oxa-9-azabicyclo[3.3.1]nonan-7-yl)quinazolin-2-amine], the figure is 8.11. On to `CC1OCC1N1CC[C@@H](c2cc3nc(Nc4cnn(CC(C)(C)O)c4Cl)ncc3cc2Cl)[C@H](F)C1` (single isomer, unassigned) [Ex-4.70, (3S,4S)(2R,3R) or (3S,4S)(2S,3S) or (3R,4R)(2R,3R) or (3R,4R)(2S,3S) or (3R,4R)(2S,3R) or (3R,4R)(2R,3S) or (3S,4S)(2S,3R) or (3S,4S)(2R,3S) 1-[5-chloro-4-({6-chloro-7-[3-fluoro-1-(2-methyloxetan-3-yl)piperidin-4-yl]quinazolin-2-yl}amino)-1H-pyrazol-1-yl]-2-methylpropan-2-ol], for which the “LRRK2 pIC50” value is 7.92. To `Cc1cc2cnc(Nc3cnn(C)c3C)nc2cc1[C@@H]1CCN([C@H]2COC[C@H]2O)C[C@H]1F` (single isomer, unassigned) [Ex-4.258, (3S,4S)(3S,4S) or (3S,4S)(3R,4R) or (3R,4R)(3S,4S) or (3R,4R)(3R,4R) 4-(4-(2-((1,5-dimethyl-1H-pyrazol-4-yl)amino)-6-methylquinazolin-7-yl)-3-fluoropiperidin-1-yl)tetrahydrofuran-3-ol] belongs 7.39; to `Cc1c(Nc2ncc3cc(Cl)c(C4CCN(C5COC5)CC4)cc3n2)cnn1C(C)(C)C#N` [Ex-2.19, 2-[4-({6-chloro-7-[1-(oxetan-3-yl)piperidin-4-yl]quinazolin-2-yl}amino)-5-methyl-1H-pyrazol-1-yl]-2-methylpropanenitrile], above 9.20.

(Values after patent US12540131B2 (Merck Sharp & Dohme LLC, priority 2019, dated 2026).)
